# According to patent US11433090B2, “mTOR-inhibitor-containing medicine for treating or preventing ophthalmic symptoms, disorders, or diseases, and application thereof” (The Doshisha, priority 2017, dated 2022):
# What was measured:
# mTOR = mTOR expression at protein level in iFECD (western blot); format: cell-based, human; details: 3 pmol mTOR siRNA, FIG. 6
# Protocol: (§1) The medium was removed from a culture dish in which iFECDs were being cultured, and the cells were supplemented with 1×PBS (−) that was preheated to 37° C., and were washed. This was repeated twice. The cells were supplemented again with 1×PBS (−) and incubated for 3 minutes at 37° C. (5% CO2). After removing the PBS (−), the cells were supplemented with 0.05% Trypsin-EDTA (Nacalai Tesque, 32778-34) and incubated for 5 minutes at 37° C. (5% CO2). The cells were then suspended in a medium, and collected by centrifugation at 1500 rpm for 3 minutes. DMEM (Nacalai Tesque, 08456-36)+10% FBS (Biowest, S1820-500)+1% P/S (Nacalai Tesque, 26252-94) was used as the medium.
# iFECDs were seeded on a 12-well plate at a ratio of 3×10^4 cells per well and cultured for 24 hours at 37° C. (5% CO2) (medium: DMEM+10% FBS+1% P/S). After 24 hours, the medium was removed. Lipofectamine (invitrogen, 92008) and 3 pmol of mTOR siRNA (Ambion, AS026M0L) were added to culture the cells for 24 hours (medium: OptiMEM-I (invitrogen, 31985-088)). The mTOR siRNA that was used has a sense strand set forth in SEQ ID NO: 1 and an antisense strand set forth in SEQ ID NO: 2. […]
# 5 μg of the extracted protein was separated by SDS-PAGE and transferred onto a nitrocellulose membrane. […] The detected band strength was analyzed with a lumino image analyzer LAS-4000 mini (Fuji Film) and ImageQuant™ software (GE Healthcare).
# S6K = test: Western blot of S6K phosphorylation after TGF-β2 stimulation in iFECD; format: cell-based, human; details: 3 pmol mTOR siRNA, FIG. 6
# Protocol: as §1
# iFECDs were seeded on a 12-well plate at a ratio of 7×10^4 cells per well and cultured for 24 hours at 37° C. (5% CO2) (DMEM+10% FBS+1% P/S was used as the medium). After 24 hours, the medium was removed. Rapamycin was added to culture the cells for 24 hours. (DMEM+2% FBS+1% P/S was used as the medium). After 24 hours, the medium was removed. A medium containing 10 ng/ml of Recombinant Human TGF-β2 (Wako, 200-19911) and rapamycin was added to culture the cells for 24 hours. […]
# 8 μg of the extracted protein was separated by SDS-PAGE and transferred onto a nitrocellulose membrane. […] The detected band strength was analyzed with a lumino image analyzer LAS-4000 mini (Fuji Film) and ImageQuant™ software (GE Healthcare). […]
substance,measurement,setting,value
"mTOR siRNA: siRNA against mTOR gene (Ambion, AS026M0L); sense strand SEQ ID NO: 1, antisense strand SEQ ID NO: 2 (sense CAUUCGCAUUCAGUCCAUATT; antisense UAUGGACUGAAUGCGAAUGAT; chemistry not given here)","mTOR expression, protein level (western blot)",mTOR,suppression was found
same,"phosphorylation of S6K at protein level, western blot",S6K,suppressed
